From US20100216795A1, “TNIK INHIBITOR AND THE USE” (priority 2008, published 2010)
pIC50: −log10 of the molar value.

Target: T1, human TNIK (N-terminal segment, TNIK_N) (Homo sapiens, UniProt Q9UKE5)
T1 construct: made in house; host or cells: Sf21 insect cells (baculovirus)
Assay: TNIK kinase assay (mobility shift)
Format: biochemical
Details: 25 μM ATP, 1 h at room temperature
From the text: A cDNA encoding the N-terminal segment (TNIK_N, residues 1-314) containing the kinase domain of human TNIK (NM_015028.1) was amplified from cDNA mixture synthesized from human tissue (Biochain) by PCR using the following primers: 5′-[…]-3′ ([SEQ ID NO:1]: forward primer, the underlined nucleotides indicates the location of a EheI site); 5′-[…]-3′ ([SEQ ID NO:2]: reverse primer, the underlined nucleotides indicates the location of a NotI site). The cDNA was subcloned into baculovirus transfer vector pFastBac_GSTb that includes protease cleavage site and glutathione S-transferase purification tag (GST-tag). The plasmid was purified and the insertion of the pFastBac_GSTb-TNIK_N was confirmed by DNA sequencing. Then E. coli DH10Bac competent cells were transformed with the plasmid to prepare the recombinant bacmid according to the instructions for the Bac-to-Bac™ baculovirus expression systems (Invitrogen). The Sf9 cells were transfected with the recombinant bacmid containing pFastBac_GSTb-TNIK_N using Cellfectin Reagent (Invitrogen) in SF-900II serum free media (Invitrogen). The viral supernatant was collected from the medium 72 h after transfection. The virus was amplified three times by infecting actively growing Sf9 or Sf21 cells in Grace's insect media (Invitrogen) supplemented with 10% FCS and an antibiotic-antimycotic reagent (Invitrogen) for 72 h at 27° C. in T-flask or roller bottles. The titer of amplified TNIK_N virus was estimated at 2.36×10^8 pfu/ml by using BacPAK™ Baculovirus Rapid Titer kit (Clontech).
Log-phase Sf21 cells (2×10^6 cells/ml) in the Grace's insect media were infected with the recombinant baculovirus at MOI of 3.0 and incubated in roller bottles (250 ml media per bottle) for 72 h at 27° C., after which, the cells were collected by centrifugation, and the cell pellet washed with cold PBS and kept at −80° C. until purification. The following purification procedures were carried out at 4° C. The frozen cells were thawed on ice and lysed in lysis buffer (50 mM Tris-HCl, pH 7.5, 150 mM NaCl, 1% Nonidet P-40, 5 mM DTT, 0.5 mM EDTA, 0.5 mM EGTA) supplemented with 1 mM phenylmethansulfonylfluoride, 2 μg/ml leupeptin, 2 μg/ml aprotinin, 1 mM NaF, 100 μM sodium orthovanadate, and 1 μM cantharidin by sonication. The suspended lysate was cleared by centrifugation at 9000 g for 20 min and the supernatant was incubated for 1 h with glutathione Sepharose beads (GE Healthcare). The beads were suspended in buffer-H (50 mM Tris-HCl, pH 7.5, 1 M NaCl, 1 mM DTT, 0.5 mM EDTA, 0.5 mM EGTA and 0.05% Brij35) and washed with buffer-H followed by buffer-L (50 mM Tris-HCl, pH 7.5, 150 mM NaCl, 1 mM DTT, 0.5 mM EDTA, 0.5 mM EGTA, 0.05% Brij35) in an Econo-pack column (BIO-RAD). The bound TNIK_N was eluted with elution buffer (50 mM Tris-HCl, pH 8.0, 150 mM NaCl, 1 mM DTT, 10% glycerol, 0.5 mM EDTA, 0.5 mM EGTA and 5 mM reduced glutathione). The eluted fractions were collected and determined the protein concentration by Bradford reagent (BIO-RAD). The TNIK_N fractions were pooled and desalted using 10DG column (BIORAD) equilibrated with the storage buffer (50 mM Tris-HCl, pH 7.5, 150 mM NaCl, 1 mM DTT, 10% glycerol, 0.05% Brij35). The purified TNIK_N was characterized by electrophoresis using 4-20% polyacrylamide gels and matrix-assisted laser desorption/ionization reflection time-of-flight (MALDI-TOF) mass spectrometry on a Voyager-DE RP MALDI/TOF (Applied Biosystems). TNIK_N was confirmed by the molecular weight and MASCOT Peptide Mass Fingerprint.
The kinase assays were conducted in a 20 μl volume using 384-well plates (Greiner). The reaction mixture consists of compound or vehicle (1% DMSO), 0.08 ng/μl TNIK_N, 1 μM FITC-labeled substrate peptides, FITC-x-Lys-Tyr-Lys-Thr-Leu-Arg-Gln ([SEQ ID NO.3], x: ε-aminocaproic acid), 20 mM Hepes, pH 7.5, 0.01% Triton X-100, 5 mM MgCl2, 25 μM ATP and 2 mM DTT. As blank, TNIK_N was excluded from the reaction mixture of vehicle (1% DMSO). […]

T1 sequence (Q9UKE5 1-314): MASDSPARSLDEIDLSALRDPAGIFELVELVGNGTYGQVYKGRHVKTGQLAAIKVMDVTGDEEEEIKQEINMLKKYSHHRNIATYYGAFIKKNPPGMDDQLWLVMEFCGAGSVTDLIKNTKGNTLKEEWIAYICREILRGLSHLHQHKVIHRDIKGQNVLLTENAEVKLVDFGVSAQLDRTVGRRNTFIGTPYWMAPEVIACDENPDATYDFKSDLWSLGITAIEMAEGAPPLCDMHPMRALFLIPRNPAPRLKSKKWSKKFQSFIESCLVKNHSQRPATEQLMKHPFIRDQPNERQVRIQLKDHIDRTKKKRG

| Compound | pIC50 |
| --- | --- |
| COc1ccc(Nc2nc(C(N)=O)c(NC(=O)c3ccc(N4CCC(CO)CC4)cc3)s2)cc1 [Compound A43, 5-{4-[4-(hydroxymethyl)piperidin-1-yl]benzamido}-2-(4-methoxyphenylamino)thiazole-4-carboxamide] | 7.89 |
| COc1ccc(Nc2nc(C(N)=O)c(NC(=O)c3ccc(CN4CCN(C)CC4)cc3)s2)cc1 [Compound A44] | 7.96 |
| COc1ccc(Nc2nc(C(N)=O)c(NC(=O)c3ccc(OCCN4CCCC4)cc3)s2)cc1 [Compound A45, 2-(4-methoxyphenylamino)-5-{4-[2-(pyrrolidin-1-yl)ethoxy]benzamido}thiazole-4-carboxamide] | 7.66 |
| COc1ccc(Nc2nc(C(N)=O)c(NC(=O)c3ccc(OC)cc3)s2)cc1 [Compound A46, 5-(4-methoxybenzamido)-2-(4-methoxyphenyl-amino)thiazole-4-carboxamide] | 7.80 |
| COc1ccc(C(=O)Nc2sc(Nc3ccncc3)nc2C(N)=O)cc1 [Compound A47, 5-(4-methoxybenzamido)-2-(pyridin-4-ylamino) thiazole-4-carboxamide] | 8.52 |
| COc1ccc(Nc2nc(C(N)=O)c(NC(=O)c3ccc(N(S(C)(=O)=O)S(C)(=O)=O)cc3)s2)cc1 [Compound A48, 2-(4-methoxyphenylamino)-5-{4-[N-(methyl-sulfonyl)methylsulfonamido]benzamido} thiazole-4-carboxamide] | 8.22 |
| COc1ccc(Nc2nc(C(N)=O)c(NC(=O)c3ccc(NCCN4CCCCC4)cc3)s2)cc1 [Compound A49, 2-(4-methoxyphenylamino)-5-{4-[2-(piperidin-1-yl)ethylamino]benzamido}thiazole-4-carboxamide] | 8.30 |
| COc1ccc(Nc2nc(C(N)=O)c(NC(=O)c3ccc(NCCc4ccncc4)cc3)s2)cc1 [Compound A55, 2-(4-methoxyphenylamino)-5-{4-[2-(pyridin-4-yl)ethylamino]benzamido}thiazole-4-carboxamide] | 8.00 |
| COc1ccc(C(=O)Nc2sc(Nc3cncnc3)nc2C(N)=O)cc1 [Compound A69, 5-(4-methoxybenzamido)-2-(pyrimidin-5-ylamino)thiazole-4-carboxamide] | 8.15 |
| NC(=O)c1nc(Nc2cccnc2)sc1NC(=O)c1ccc(NCCO)cc1 [Compound A72, 5-[4-(2-hydroxyethylamino)benzamido]-2-(pyridin-3-ylamino)thiazole-4-carboxamide] | 8.40 |
| CN1CCN(c2ccc(C(=O)Nc3sc(Nc4cccnc4)nc3C(N)=O)cc2)CC1 [Compound A74, 5-[4-(4-methylpiperazin-1-yl)benzamido]-2-(pyridin-3-ylamino)thiazole-4-carboxamide] | 8.15 |
| NC(=O)c1nc(Nc2ccncc2)sc1NC(=O)c1ccc(F)cc1 [Compound A76, 5-(4-fluorobenzamido)-2-(pyridin-4-ylamino) thiazole-4-carboxamide] | 8.15 |
| NC(=O)c1nc(Nc2cccnc2)sc1NC(=O)c1ccc(NCCc2ccncc2)cc1 [Compound A84, 2-(pyridin-3-ylamino)-5-{4-[2-(pyridin-4-yl)ethyl-amino]benzamido}thiazole-4-carboxamide] | 8.70 |
| COc1ccc(C(=O)Nc2sc(Nc3ccnc(F)c3)nc2C(N)=O)cc1 [Compound A92, 2-(2-fluoropyridin-4-ylamino)-5-(4-methoxy-benzamido)thiazole-4-carboxamide] | 8.52 |
| COc1ccc(C(=O)Nc2sc(Nc3ccc(CO)cc3)nc2C(N)=O)cc1 [Compound A102, 2-[4-(hydroxymethyl)phenylamino]-5-(4-methoxy-benzamido)thiazole-4-carboxamide] | 8.22 |
| COc1ccc(Nc2nc(C(N)=O)c(NC(=O)c3ccc(N)c(N)c3)s2)cc1 [Compound A103, 5-(3,4-diaminobenzamido)-2-(4-methoxyphenyl-amino)thiazole-4-carboxamide] | 8.00 |

Tested on: HCT-116 cells
Assay: HCT-116 xenograft growth after intratumoral siRNA
Format: in vivo, BALB/c nu/nu nude mice
Details: HCT-116 tumours, 18 days after the injection of siRNA
Experimental: We next examined the effects of TNIK on the growth of human colon cancer cells in vivo (FIG. 2). HCT-116 cells were implanted in the flank of immunodeficient mice. One week after the inoculation, siRNA against TNIK (12 or 13) mixed with atelocollagen (Takeshita, F. et al. Efficient delivery of small interfering RNA to bone-metastatic tumors by using atelocollagen in vivo. Proc Natl Acad Sci USA 102, 12177 (2005)) was injected directly into the tumours (224.5±8.9 mm^3 in size). Three days after the siRNA injection, some tumours were excised and the silencing of TNIK mRNA was confirmed by real-time PCR (FIG. 2b). The volume of xenografts was monitored for 18 days after siRNA injection (FIG. 2a). […] We observed similar regression of established tumours after a single injection of siRNA against TNIK in two other colorectal cancer cell lines, DLD1 and WiDr (FIGS. 3 and 4).
a, HCT-116 cells were inoculated into BALB/c nu/nu nude mice subcutaneously. The developed tumours were not treated, or treated with only atelocollagen, control RNA (X or IX) or siRNA against TNIK (12 or 13). The volume of tumours (n=8 per group) was monitored as indicated. #, P<0.001 (Mann-Whitney U-test); Bars, SE; N.S., not significant. b, mRNA expression of TNIK in tumours injected with siRNA (n=3 per group). c, d, Representative appearance of mice and excised tumours 18 days after the injection of siRNA. Columns indicate the average weight of excised tumours (n=8 per group). $, P<0.005 (Mann-Whitney U-test); Bars, SE.
5×10^6 HCT-116, DLD1 or WiDr cells suspended in 0.1 ml of PBS were subcutaneously inoculated into the flanks of 5-week-old female BALB/c nu/nu nude mice (SLC, Tokyo, Japan). One week later the developed tumours were treated with siRNA together with atelocollagen (AteloGene; KOKEN, Tokyo, Japan) (Takeshita, F. et al. Efficient delivery of small interfering RNA to bone-metastatic tumors by using atelocollagen in vivo. Proc Natl Acad Sci USA 102, 12177 (2005)). The final concentration of siRNA was 30 μM and that of atelocollagen was 0.5%. A 0.2-ml volume of siRNA solution was injected directly into each tumour. Tumour volume was determined as V=A×[…], where A and B represent the largest and smallest dimensions (Bergers, G et al. Effects of angiogenesis inhibitors on multistage carcinogenesis in mice. Science 284, 808 (1999)).

| Compound | excised tumours versus not treated, atelocollagen only or control RNA |
| --- | --- |
| siRNA against TNIK (12): small interfering RNA against TNIK, sense 5′-CGACAUACCCAGACUGAUAUU-3′, synthesized by Dharmacon (antisense UAUCAGUCUGGGUAUGUCGUU; listed as RNA, chemistry not given here) | significantly smaller |
| siRNA against TNIK (13): small interfering RNA against TNIK, sense 5′-GACCGAAGCUCUUGGUUACUU-3′, synthesized by Dharmacon (antisense GUAACCAAGAGCUUCGGUCUU; listed as RNA, chemistry not given here) | significantly smaller |

Same assay, conditions: HCT-116 tumours, single injection of siRNA with atelocollagen into the tumour, monitored 18 days

| Compound | volume of xenografts |
| --- | --- |
| siRNA against TNIK (12): small interfering RNA against TNIK, sense 5′-CGACAUACCCAGACUGAUAUU-3′, synthesized by Dharmacon (antisense UAUCAGUCUGGGUAUGUCGUU; listed as RNA, chemistry not given here) | regressed almost completely |
| siRNA against TNIK (13): small interfering RNA against TNIK, sense 5′-GACCGAAGCUCUUGGUUACUU-3′, synthesized by Dharmacon (antisense GUAACCAAGAGCUUCGGUCUU; listed as RNA, chemistry not given here) | regressed almost completely |
